What was measured:
CCRF-CEM = experiment: NCI SRB cytotoxicity, leukemia CCRF-CEM; type: cell-based; settings: Homo sapiens, 48 h exposure
Protocol: (§1) The pyrazolochalcones (7e, 8e, 10e, 11e, 12e, 13e and 8f) have been tested against fifty nine human tumor cell lines derived from nine cancer types (leukemia, non-small cell lung cancer, colon cancer, CNS cancer, melanoma, ovarian cancer, renal cancer, prostate cancer and breast cancer) as per the NCI protocol. For each compound, dose response curves for individual cell lines have been measured at a minimum of five concentrations at 10 fold dilutions. A protocol of 48 h continuous drug exposure has been used, and a sulforhodamine B (SRB) protein assay has been used to estimate cell viability or growth. The concentration for 50% cell growth inhibition (GI50), 50% cell death (LC50, 50% growth) and total cell growth inhibition (TGI, 0% growth) values were tabulated (Table-1). DMSO was used as control to calculate the values of GI50, LC50 and TGI. The compounds 7e, 8e, 10e, 11e, 12e, 13e and 8f has been evaluated for their in vitro cytotoxicity in […] cell lines from nine human cancer types of leukemia (K-562, SR), non-small cell lung (Hop-62, NCI-H226, NCI-H522), colon (HCT-116, HCT-15, HCC-2998), CNS (SF-539), melanoma (SK-MEL-5, UACC-62, M14), ovarian (IGROV1), renal (A498), prostate (PC3) and breast (BT-549, MDA-MB-435, HS578T) origin. The results are expressed as percent of cell growth determined relative to that of untreated control cells (Table 2).

HL-60(TB) = experiment: NCI SRB cytotoxicity, leukemia HL-60(TB); type: cell-based; settings: Homo sapiens, 48 h exposure
Protocol: as §1

MOLT-4 = experiment: NCI SRB cytotoxicity, leukemia MOLT-4; type: cell-based; settings: Homo sapiens, 48 h exposure
Protocol: as §1

SR = experiment: NCI SRB cytotoxicity, leukemia SR; type: cell-based; settings: Homo sapiens, 48 h exposure
Protocol: as §1

A549/ATCC = experiment: NCI SRB cytotoxicity, non-small cell lung A549/ATCC; type: cell-based; settings: Homo sapiens, 48 h exposure
Protocol: as §1

NCI-H226 = experiment: NCI SRB cytotoxicity, non-small cell lung NCI-H226; type: cell-based; settings: Homo sapiens, 48 h exposure
Protocol: as §1

NCI-H23 = experiment: NCI SRB cytotoxicity, non-small cell lung NCI-H23; type: cell-based; settings: Homo sapiens, 48 h exposure
Protocol: as §1

NCI-H460 = experiment: NCI SRB cytotoxicity, non-small cell lung NCI-H460; type: cell-based; settings: Homo sapiens, 48 h exposure
Protocol: as §1

NCI-H522 = experiment: NCI SRB cytotoxicity, non-small cell lung NCI-H522; type: cell-based; settings: Homo sapiens, 48 h exposure
Protocol: as §1

COLO-205 = experiment: NCI SRB cytotoxicity, colon COLO-205; type: cell-based; settings: Homo sapiens, 48 h exposure
Protocol: as §1

HCC-2998 = experiment: NCI SRB cytotoxicity, colon HCC-2998; type: cell-based; settings: Homo sapiens, 48 h exposure
Protocol: as §1

HCT-15 = experiment: NCI SRB cytotoxicity, colon HCT-15; type: cell-based; settings: Homo sapiens, 48 h exposure
Protocol: as §1

SW-620 = experiment: NCI SRB cytotoxicity, colon SW-620; type: cell-based; settings: Homo sapiens, 48 h exposure
Protocol: as §1

SF-268 = experiment: NCI SRB cytotoxicity, CNS SF-268; type: cell-based; settings: Homo sapiens, 48 h exposure
Protocol: as §1

SNB-75 = experiment: NCI SRB cytotoxicity, CNS SNB-75; type: cell-based; settings: Homo sapiens, 48 h exposure
Protocol: as §1

M14 = experiment: NCI SRB cytotoxicity, melanoma M14; type: cell-based; settings: Homo sapiens, 48 h exposure
Protocol: as §1

SK-MEL-28 = experiment: NCI SRB cytotoxicity, melanoma SK-MEL-28; type: cell-based; settings: Homo sapiens, 48 h exposure
Protocol: as §1

SK-MEL-5 = experiment: NCI SRB cytotoxicity, melanoma SK-MEL-5; type: cell-based; settings: Homo sapiens, 48 h exposure
Protocol: as §1

UACC-257 = experiment: NCI SRB cytotoxicity, melanoma UACC-257; type: cell-based; settings: Homo sapiens, 48 h exposure
Protocol: as §1

OVCAR-3 = experiment: NCI SRB cytotoxicity, ovarian OVCAR-3; type: cell-based; settings: Homo sapiens, 48 h exposure
Protocol: as §1

OVCAR-5 = experiment: NCI SRB cytotoxicity, ovarian OVCAR-5; type: cell-based; settings: Homo sapiens, 48 h exposure
Protocol: as §1

SK-OV-3 = experiment: NCI SRB cytotoxicity, ovarian SK-OV-3; type: cell-based; settings: Homo sapiens, 48 h exposure
Protocol: as §1

786-0 = experiment: NCI SRB cytotoxicity, renal 786-0; type: cell-based; settings: Homo sapiens, 48 h exposure
Protocol: as §1

A498 = experiment: NCI SRB cytotoxicity, renal A498; type: cell-based; settings: Homo sapiens, 48 h exposure
Protocol: as §1

ACHN = experiment: NCI SRB cytotoxicity, renal ACHN; type: cell-based; settings: Homo sapiens, 48 h exposure
Protocol: as §1

CAKI-1 = experiment: NCI SRB cytotoxicity, renal CAKI-1; type: cell-based; settings: Homo sapiens, 48 h exposure
Protocol: as §1

RXF 393 = experiment: NCI SRB cytotoxicity, renal RXF 393; type: cell-based; settings: Homo sapiens, 48 h exposure
Protocol: as §1

TK-10 = experiment: NCI SRB cytotoxicity, renal TK-10; type: cell-based; settings: Homo sapiens, 48 h exposure
Protocol: as §1

PC-3 = experiment: NCI SRB cytotoxicity, prostate PC-3; type: cell-based; settings: Homo sapiens, 48 h exposure
Protocol: as §1

MCF7 = experiment: NCI SRB cytotoxicity, breast MCF7; type: cell-based; settings: Homo sapiens, 48 h exposure
Protocol: as §1

MDA-MB-231/ATCC = experiment: NCI SRB cytotoxicity, breast MDA-MB-231/ATCC; type: cell-based; settings: Homo sapiens, 48 h exposure
Protocol: as §1

HS 578T = experiment: NCI SRB cytotoxicity, breast HS 578T; type: cell-based; settings: Homo sapiens, 48 h exposure
Protocol: as §1

BT-549 = experiment: NCI SRB cytotoxicity, breast BT-549; type: cell-based; settings: Homo sapiens, 48 h exposure
Protocol: as §1

T-47D = experiment: NCI SRB cytotoxicity, breast T-47D; type: cell-based; settings: Homo sapiens, T47D, 48 h exposure
Protocol: as §1

MDA-MB-435 = experiment: NCI SRB cytotoxicity, breast panel MDA-MB-435; type: cell-based; settings: Homo sapiens, 48 h exposure
Protocol: as §1

Leukemia = experiment: NCI SRB cytotoxicity, leukemia panel average; type: cell-based, human; settings: average of cell lines; for CC50: Homo sapiens, read-out: Log10 LC50 (concentration in mol/L causing 50% cell death) (converted)
Protocol: as §1
(§2) Each cancer type represents the average of six to eight different cancer cell lines.

Ovarian = experiment: NCI SRB cytotoxicity, ovarian panel average; type: cell-based, human; settings: average of cell lines; for CC50: Homo sapiens, read-out: Log10 LC50 (concentration in mol/L causing 50% cell death) (converted)
Protocol: as §1, §2

Renal = experiment: NCI SRB cytotoxicity, renal panel average; type: cell-based, human; settings: average of cell lines; for CC50: Homo sapiens, read-out: Log10 LC50 (concentration in mol/L causing 50% cell death) (converted)
Protocol: as §1, §2

Prostate = experiment: NCI SRB cytotoxicity, prostate panel average; type: cell-based, human; settings: average of cell lines; for CC50: Homo sapiens, read-out: Log10 LC50 (concentration in mol/L causing 50% cell death) (converted)
Protocol: as §1, §2

Breast = experiment: NCI SRB cytotoxicity, breast panel average; type: cell-based, human; settings: average of cell lines; for CC50: Homo sapiens, read-out: Log10 LC50 (concentration in mol/L causing 50% cell death) (converted)
Protocol: as §1, §2

COc1cc(-c2cc(/C=C/C(=O)c3ccc4c(c3)OCO4)[nH]n2)cc(OC)c1OC [11e, (E)-1-(benzo[d][1,3]dioxol-5-yl)-3-(3-(3,4,5-trimethoxyphenyl)-1H-pyrazol-5-yl)prop-2-en-1-one]
GI50 (CCRF-CEM): 1.57 µM | GI50 (HL-60(TB)): 2.17 µM | GI50 (MOLT-4): 2.98 µM | GI50 (SR): 0.55 µM | GI50 (A549/ATCC): 4.32 µM | GI50 (NCI-H226): 3.31 µM | GI50 (NCI-H23): 2.02 µM | GI50 (NCI-H460): 2.12 µM | GI50 (NCI-H522): 1.03 µM | GI50 (COLO-205): 1.87 µM | GI50 (HCC-2998): 1.95 µM | GI50 (HCT-15): 2.12 µM | GI50 (SW-620): 2.47 µM | GI50 (SF-268): 2.97 µM | GI50 (SNB-75): 2.01 µM | GI50 (M14): 3.86 µM | GI50 (SK-MEL-28): 2.48 µM | GI50 (SK-MEL-5): 4.51 µM | GI50 (UACC-257): 2.46 µM | GI50 (OVCAR-3): 3.38 µM | GI50 (OVCAR-5): 3.37 µM | GI50 (SK-OV-3): 5.76 µM | GI50 (786-0): 2.33 µM | GI50 (A498): 2.76 µM | GI50 (ACHN): 1.88 µM | GI50 (CAKI-1): 5.51 µM | GI50 (RXF 393): 1.48 µM | GI50 (TK-10): 2.33 µM | GI50 (PC-3): 2.81 µM | GI50 (MCF7): 1.67 µM | GI50 (MDA-MB-231/ATCC): 3.5 µM | GI50 (HS 578T): 3.71 µM | GI50 (BT-549): 2.37 µM | GI50 (T-47D): 2.51 µM | GI50 (MDA-MB-435): 1.4 µM | CC50 (Leukemia): 0.0001 mol/L | Log10 GI50 (concentration in mol/L causing 50% growth inhibition) (Leukemia): −4.91 mol/L | Log10 TGI (concentration in mol/L causing total growth inhibition (0% growth)) (Leukemia): −5.00 mol/L | CC50 (Ovarian): 100 µM | Log10 GI50 (concentration in mol/L causing 50% growth inhibition) (Ovarian): −4 mol/L | Log10 TGI (concentration in mol/L causing total growth inhibition (0% growth)) (Ovarian): −4.38 mol/L | CC50 (Renal): 42.7 µM | Log10 GI50 (concentration in mol/L causing 50% growth inhibition) (Renal): −4.37 mol/L | Log10 TGI (concentration in mol/L causing total growth inhibition (0% growth)) (Renal): −4.94 mol/L | CC50 (Prostate): 0.0001 mol/L | Log10 GI50 (concentration in mol/L causing 50% growth inhibition) (Prostate): −4 mol/L | Log10 TGI (concentration in mol/L causing total growth inhibition (0% growth)) (Prostate): −4.94 mol/L | CC50 (Breast): 295 µM | Log10 GI50 (concentration in mol/L causing 50% growth inhibition) (Breast): −3.53 mol/L | Log10 TGI (concentration in mol/L causing total growth inhibition (0% growth)) (Breast): −4.60 mol/L

COc1cc(-c2cc(/C=C/C(=O)c3ccc(F)c(F)c3)[nH]n2)cc(OC)c1OC [13e, (E)-1-(3,4-difluorophenyl)-3-(3-(3,4,5-trimethoxyphenyl)-1H-pyrazol-5-yl)prop-2-en-1-one]
GI50 (CCRF-CEM): 3.8 µM | GI50 (HL-60(TB)): 2.48 µM | GI50 (MOLT-4): 2.72 µM | GI50 (SR): 2.92 µM | GI50 (A549/ATCC): 2.43 µM | GI50 (NCI-H226): 3.72 µM | GI50 (NCI-H23): 2.6 µM | GI50 (NCI-H460): 2.96 µM | GI50 (NCI-H522): 1.57 µM | GI50 (COLO-205): 1.69 µM | GI50 (HCC-2998): 3.69 µM | GI50 (HCT-15): 3.01 µM | GI50 (SW-620): 3.42 µM | GI50 (SF-268): 3.15 µM | GI50 (SNB-75): 2.9 µM | GI50 (M14): 2.7 µM | GI50 (SK-MEL-28): 5.31 µM | GI50 (SK-MEL-5): 2.27 µM | GI50 (UACC-257): 1.75 µM | GI50 (OVCAR-3): 2.39 µM | GI50 (OVCAR-5): 4.48 µM | GI50 (SK-OV-3): 3.53 µM | GI50 (786-0): 3.35 µM | GI50 (A498): 2.11 µM | GI50 (ACHN): 3.26 µM | GI50 (CAKI-1): 2.98 µM | GI50 (RXF 393): 2.05 µM | GI50 (TK-10): 2.29 µM | GI50 (PC-3): 1.66 µM | GI50 (MCF7): 3.2 µM | GI50 (MDA-MB-231/ATCC): 1.64 µM | GI50 (HS 578T): 3.58 µM | GI50 (BT-549): 4.11 µM | GI50 (T-47D): 2.45 µM | GI50 (MDA-MB-435): 2.22 µM | CC50 (Leukemia): 0.0001 mol/L | Log10 GI50 (concentration in mol/L causing 50% growth inhibition) (Leukemia): −5.57 mol/L | Log10 TGI (concentration in mol/L causing total growth inhibition (0% growth)) (Leukemia): −4.76 mol/L | CC50 (Ovarian): 89.1 µM | Log10 GI50 (concentration in mol/L causing 50% growth inhibition) (Ovarian): −5.5 mol/L | Log10 TGI (concentration in mol/L causing total growth inhibition (0% growth)) (Ovarian): −4.45 mol/L | CC50 (Renal): 93.3 µM | Log10 GI50 (concentration in mol/L causing 50% growth inhibition) (Renal): −5.56 mol/L | Log10 TGI (concentration in mol/L causing total growth inhibition (0% growth)) (Renal): −4.71 mol/L | CC50 (Prostate): 0.0001 mol/L | Log10 GI50 (concentration in mol/L causing 50% growth inhibition) (Prostate): −5.78 mol/L | Log10 TGI (concentration in mol/L causing total growth inhibition (0% growth)) (Prostate): −5.24 mol/L | CC50 (Breast): 97.7 µM | Log10 GI50 (concentration in mol/L causing 50% growth inhibition) (Breast): −5.56 mol/L | Log10 TGI (concentration in mol/L causing total growth inhibition (0% growth)) (Breast): −4.83 mol/L

Reference: patent publication US9604933B2, “Pyrazolochalcones as potential anticancer agents” (COUNCIL OF SCIENTIFIC AND INDUSTRIAL RESEARCH, priority 2013, dated 2017)
